Results on three molecules are retold here after patent US6960594B2, “Thiophene and furan 2,5-dicarboxamides useful in the treatment of cancer” (Shire BioChem Inc., priority 1998, dated 2005).

Assay [1] has as its system Chick chorioallantoic membrane (CAM) capillary formation driven by VPF/VEGF165. The assay can be described thus: Chick chorioallantoic membrane (CAM) mesh assay. In kind it is in vivo, chicken. To be noted: significant if >25%. The protocol: Fertilized white leghorn chicken eggs (SPAFAS Inc., Norwich, Conn.) were received at day 0 and incubated for 3 days at 37 C with constant humidity. On day 3, eggs were rinsed with 70% ethanol and opened into 100 mm^2 tissue culture coated Petri dishes under aseptic conditions. The embryos were then returned to a humidified 38 C incubator for 7-9 additional days.
Vitrogen (Collagen Biomaterials, Palo Alto, Calif.) at a final concentration of 0.73 mg/mL and Matrigel (Becton Dickinson, Bedford, Mass.) at a final concentration of 10 mg/mL was directly pipetted onto Nylon meshes with 250 μm^2 openings which were cut into 4 mm×4 mm squares and autoclaved. Polymerization of meshes were under aseptic conditions, on bacteriological Petri dishes. The polymerization conditions for each substrate were identical; after mixing with or without 250 μg of VPF/VEGF165 (Peprotech, Rocky Hill, N.J.) and/or compounds of interest, 40 μL were pipetted onto each mesh in a bacteriological Petri dish. The Petri dish was placed in a humidified 37 C incubator with 5% CO2 for 30 minutes to allow polymerization followed by an incubation at 4° C. for 2 hours.
In a tissue culture enclosure, meshes were placed onto the periphery of the CAM of a day 12-14 embryo, excluding areas containing major vessels. The embryos were then returned to the humidified 38° C. incubator with 3% CO2 for 24 to 48 additional hours.
Embryos were removed from the incubator and meshes were viewed under a dissecting microscope for gross evaluation. Injection of 400 μL FITC dextran, MW 2,000,000 (Sigma, St. Louis, Mo.) through glass microcapillary tubes by infusion into the umbilical vein was performed at a rate of 200 μl per minute. The FITC dextran was allowed to circulate for 5 minutes and 3.7% formaldehyde in PBS was applied directly on each mesh. The embryos were then incubated at 40° C. for 5 minutes and the meshes were dissected off the CAM and fixed in 3.7% formaldehyde for 10 minutes to overnight.
After fixation, meshes were mounted on slides with 90% glycerol in PBS and visualized on an inverted fluorescence microscope. A Nikon Diaphot with a Sony DXC-151A camera attached to the side port was used for capture of images and analysis was with the NIH Image 1.61 software program. For each mesh, 5 random staggered images (approximately 600 μm each) were captured. The areas of high intensity were highlighted and measured. Results are expressed as ability to suppress capillary formation after subtraction from negative control. Values were calculated as a inhibition, considering 100% the capillary density achieved by VPF in the presence of vitrogen alone minus the bakground levels in the absence of VPF. Negative values indicated angiogenic stimulation above the VPF positive control.

Assay [2] concerns the target T1, α5β1 (Homo sapiens, UniProt P05556+P08648).
T1 construct: Cells HT29, K562, or K562 transfected with αvβ3; endogenous in cells; host or cells: K562
In words: Cell adhesion assay, K562 on fibronectin. Type of assay: cell-based. To be noted: K562 cells, adhesion to fibronectin, 1 hour. The protocol:
(§1) The wells of 96-well plates (Immunolon) were coated, by incubation overnight at 4° C., with 5 ug/mL vitronectin, 2 ug/mL osteopontin, or fibronectin or 10 mg/mL BSA in PBS. The protein solution was flicked out and the wells were blocked with 10 mg/mL BSA (0.1 mL) for 1-2 hours at 37° C. Cells HT29, K562, or K562 transfected with αvβ3 (Blystone et al., 1994) were loaded with a fluorescent marker, 5-chloromethylfluorescein diacetate (Molecular Probes, Eugene, Oreg.) for 1 hour at 37° C., then incubated in fresh medium without the fluorescent marker for 1 hour. Cells were lifted with trypsin-EDTA and washed two times with Hank's balanced salt solution minus cations (Sigma) supplemented with 1 mM MgCl2 Cells (75,000 cells/well) were added to coated plates in triplicate and allowed to attach at 37° C. for 1 hour in the presence or absence of specific antibodies (5 ug/mL) or 10-fold dilutions of compounds of interest starting at 10 uM. Nonadherent cells were removed by gentle washing twice with PBS. The adherent cells were solubilized with 1% triton x-100 and detected using a fluorescence plate reader (DYNEX Technologies). The number of attached cells was calculated based upon standard curves for each cell line used in the experiment. Non-specific cell attachment (attachment to wells coated with BSA) was always less than 5%.

Assay [3] deals with HMVEC. In words: Cell proliferation and cytotoxicity MTT assay, HMVEC. In kind it is cell-based. Particulars: 72 hours culture. As for the experimental part: (§2) The wells of microtiter plates were seeded with 2000 cells/well T24, 2500 cells/well HT29 or 5000 cells/well HMVEC (Cell Systems) in 100 uL, followed by an overnight culture for cell adhesion. The next day, the media is supplemented with 100 uL of 10-fold dilution of compound of interest starting at 10 uM. Following culture for 72 hours, 3-(4,5-dimethyl-2-thiazolyl)-2,5-diphenyltetrazolium bromide (MTT; Sigma) at 2 mg/mL was added to each well (50 uL/well) and further incubated for 4 hours at 37° C. The medium was flicked out and 200 uL of a 1:1 solution of ethanol:acetone followed by 25 uL of glycine buffer (0.1 M glycine, 0.1M NaCl, pH 10.5) is added and the color measured by the absorbance at 570 nm.
(In general: Tetrazolium dyes change colour on reduction, which living cells bring about.)

Assay [4] has as its system HT29. The assay can be described thus: Cell proliferation and cytotoxicity MTT assay, HT29. In kind it is cell-based. As for the experimental part:
as §2

Assay [5] deals with T2, placental αvβ3 (Homo sapiens, UniProt P05106+P06756).
T2 construct: placental αvβ3 at 0.5 ug/mL; from tissue; host or cells: placenta
T2 sequence (P06756 31-889 limits assumed): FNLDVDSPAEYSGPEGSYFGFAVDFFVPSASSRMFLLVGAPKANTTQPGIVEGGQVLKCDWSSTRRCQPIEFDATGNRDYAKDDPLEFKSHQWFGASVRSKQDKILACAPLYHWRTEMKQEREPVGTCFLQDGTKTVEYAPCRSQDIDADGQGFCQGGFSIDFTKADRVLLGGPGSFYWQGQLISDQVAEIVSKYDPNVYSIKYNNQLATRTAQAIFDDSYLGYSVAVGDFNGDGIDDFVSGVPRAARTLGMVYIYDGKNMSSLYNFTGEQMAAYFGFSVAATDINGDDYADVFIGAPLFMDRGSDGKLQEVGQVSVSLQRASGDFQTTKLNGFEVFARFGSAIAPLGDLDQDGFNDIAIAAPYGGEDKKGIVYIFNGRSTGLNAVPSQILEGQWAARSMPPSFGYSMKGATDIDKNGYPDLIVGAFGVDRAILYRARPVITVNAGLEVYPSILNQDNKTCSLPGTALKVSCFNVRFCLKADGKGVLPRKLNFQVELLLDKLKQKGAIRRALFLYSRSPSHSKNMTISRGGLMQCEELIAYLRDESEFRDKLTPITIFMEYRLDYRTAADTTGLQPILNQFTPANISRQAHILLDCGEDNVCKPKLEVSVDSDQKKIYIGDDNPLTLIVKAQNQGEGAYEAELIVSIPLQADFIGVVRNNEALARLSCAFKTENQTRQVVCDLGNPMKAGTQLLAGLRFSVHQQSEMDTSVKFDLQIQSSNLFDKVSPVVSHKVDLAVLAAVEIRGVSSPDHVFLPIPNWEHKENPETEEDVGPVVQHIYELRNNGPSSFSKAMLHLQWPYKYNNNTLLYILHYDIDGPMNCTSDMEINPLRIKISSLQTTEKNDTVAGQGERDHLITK
T2 sequence (P06756 891-1048 partner limits assumed): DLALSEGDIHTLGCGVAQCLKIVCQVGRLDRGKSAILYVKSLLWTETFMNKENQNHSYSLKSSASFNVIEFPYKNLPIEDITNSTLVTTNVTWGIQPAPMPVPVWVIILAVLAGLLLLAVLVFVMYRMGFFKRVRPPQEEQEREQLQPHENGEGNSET
T2 sequence (P05106 27-788): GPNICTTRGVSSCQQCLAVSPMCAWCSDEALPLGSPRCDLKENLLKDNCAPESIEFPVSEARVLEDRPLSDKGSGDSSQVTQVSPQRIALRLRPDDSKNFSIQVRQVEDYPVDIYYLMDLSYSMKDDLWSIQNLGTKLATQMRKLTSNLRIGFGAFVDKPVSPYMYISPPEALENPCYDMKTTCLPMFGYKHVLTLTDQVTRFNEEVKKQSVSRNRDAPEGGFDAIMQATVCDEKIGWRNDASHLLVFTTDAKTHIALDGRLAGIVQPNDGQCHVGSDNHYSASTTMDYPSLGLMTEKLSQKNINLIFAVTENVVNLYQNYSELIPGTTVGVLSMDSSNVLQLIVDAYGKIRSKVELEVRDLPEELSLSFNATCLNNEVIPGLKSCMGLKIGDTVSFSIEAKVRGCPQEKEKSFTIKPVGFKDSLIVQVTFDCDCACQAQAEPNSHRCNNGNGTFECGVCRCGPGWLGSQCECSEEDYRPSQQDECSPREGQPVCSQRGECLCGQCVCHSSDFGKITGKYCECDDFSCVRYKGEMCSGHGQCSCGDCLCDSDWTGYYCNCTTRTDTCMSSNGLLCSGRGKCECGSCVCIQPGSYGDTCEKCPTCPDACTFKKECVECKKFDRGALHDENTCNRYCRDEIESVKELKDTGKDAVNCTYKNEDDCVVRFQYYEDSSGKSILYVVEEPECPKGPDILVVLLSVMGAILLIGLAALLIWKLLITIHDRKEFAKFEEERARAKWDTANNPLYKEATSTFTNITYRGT
The assay can be described thus: Fibrinogen binding to immobilized αvβ3. The protocol:
(§3) The wells of plastic microtiter plates were coated overnight at 4° C. with purified active αIIbβ3 (Calbiochem) or placental αvβ3 at 0.5 ug/mL (100 uL/well) in a buffer containing 150 mM NaCl, 20 mM Tris, pH 7.4, 1 mM MgCl2, 0.2 mM MnCl2, and including 1 mM CaCl2 for αIIbβ3. Blocking of nonspecific sites was achieved by incubating the wells with 35 mg/mL bovine serum albumin (BSA) for at least 2 hours at 37° C. Biotinylated-fibrinogen (10 nM) was added in 0.2 mL binding buffer (100 mM NaCl, 50 mM Tris, pH 7.4, 1 mM MgCl2, 0.2 mM MnCl2 and 1 mg/mL BSA including 1 mM CaCl2 for αIIbβ3) to the wells in triplicate in the absence or presence of increasing concentrations of compounds of interest (0.001-100 uM) and further incubated for 2 hours at 37° C. Nonbound fibrinogen was removed by five washes with binding buffer. Avidin conjugated to alkaline phosphatase (Sigma), diluted in binding buffer, was added and incubated for two hours at 37° C. The plates were washed five times with binding buffer, and after addition of the substrate PNPP (Pierce), the enzyme activity was measured by the absorbance at 405 nm.

In assay [6] the target is T3, αvβ5 (Homo sapiens, UniProt P06756+P18084).
T3 construct: Cells HT29, K562, or K562 transfected with αvβ3; endogenous in cells; host or cells: HT29
T3 sequence (P06756 31-889 limits assumed): as the sequence (P06756 31-889 limits assumed) above
T3 sequence (P06756 891-1048 partner limits assumed): as the sequence (P06756 891-1048 partner limits assumed) above
T3 sequence (P18084 24-799): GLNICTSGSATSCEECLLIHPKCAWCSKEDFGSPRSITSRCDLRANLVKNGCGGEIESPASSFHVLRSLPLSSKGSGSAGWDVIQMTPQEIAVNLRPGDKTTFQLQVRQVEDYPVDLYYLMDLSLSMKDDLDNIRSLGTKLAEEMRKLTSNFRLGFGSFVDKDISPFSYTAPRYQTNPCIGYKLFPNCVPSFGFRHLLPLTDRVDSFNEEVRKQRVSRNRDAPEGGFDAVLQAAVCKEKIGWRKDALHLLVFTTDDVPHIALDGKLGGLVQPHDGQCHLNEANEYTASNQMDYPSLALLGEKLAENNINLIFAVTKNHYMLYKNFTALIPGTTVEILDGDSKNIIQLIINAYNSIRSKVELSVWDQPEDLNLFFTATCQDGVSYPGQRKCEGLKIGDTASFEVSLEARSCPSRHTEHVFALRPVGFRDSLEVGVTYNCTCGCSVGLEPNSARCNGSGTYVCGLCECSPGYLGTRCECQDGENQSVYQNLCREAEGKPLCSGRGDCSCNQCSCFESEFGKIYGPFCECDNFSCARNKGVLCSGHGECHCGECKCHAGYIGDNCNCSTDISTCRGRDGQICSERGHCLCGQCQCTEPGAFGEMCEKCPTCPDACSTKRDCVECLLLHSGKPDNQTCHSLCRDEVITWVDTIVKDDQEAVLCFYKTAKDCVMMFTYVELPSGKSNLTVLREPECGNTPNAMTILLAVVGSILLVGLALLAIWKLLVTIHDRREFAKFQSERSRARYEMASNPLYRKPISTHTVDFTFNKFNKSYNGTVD
The assay can be described thus: Cell adhesion assay, HT29 on vitronectin. In kind it is cell-based. The protocol:
as §1, with “Cells HT29, K562, or K562 transfected with αvβ3 (Blystone et al., 1994) were loaded with a fluorescent marker, 5-chloromethylfluorescein diacetate (Molecular Probes, Eugene, Oreg.) for 1 hour at 37° C., then incubated in fresh medium without the fluorescent marker for 1 hour.” left out, “experiment.” for “experiment. Non-specific cell attachment (attachment to wells coated with BSA) was always less than 5%.”

Assay [7] deals with T4, αvβ3 (Homo sapiens, UniProt P05106+P06756).
T4 construct: expressed in transfected cells; host or cells: K562
T4 sequence (P06756 31-889 limits assumed): as the sequence (P06756 31-889 limits assumed) above
T4 sequence (P06756 891-1048 partner limits assumed): as the sequence (P06756 891-1048 partner limits assumed) above
T4 sequence (P05106 27-788): as the sequence (P05106 27-788) above
In words: Cell adhesion assay, K562-tr on osteopontin. In kind it is cell-based. As for the experimental part:
as §1, with “Cells HT29, K562, or K562 transfected with αvβ3 (Blystone et al., 1994) were loaded with a fluorescent marker, 5-chloromethylfluorescein diacetate (Molecular Probes, Eugene, Oreg.) for 1 hour at 37° C., then incubated in fresh medium without the fluorescent marker for 1 hour.” left out, “experiment.” for “experiment. Non-specific cell attachment (attachment to wells coated with BSA) was always less than 5%.”

The target of assay [8] is T5, GP IIb-IIIa (αIIbβ3) (Homo sapiens, UniProt P05106+P08514).
T5 construct: purchased Calbiochem
T5 sequence (P08514 32-887 limits assumed): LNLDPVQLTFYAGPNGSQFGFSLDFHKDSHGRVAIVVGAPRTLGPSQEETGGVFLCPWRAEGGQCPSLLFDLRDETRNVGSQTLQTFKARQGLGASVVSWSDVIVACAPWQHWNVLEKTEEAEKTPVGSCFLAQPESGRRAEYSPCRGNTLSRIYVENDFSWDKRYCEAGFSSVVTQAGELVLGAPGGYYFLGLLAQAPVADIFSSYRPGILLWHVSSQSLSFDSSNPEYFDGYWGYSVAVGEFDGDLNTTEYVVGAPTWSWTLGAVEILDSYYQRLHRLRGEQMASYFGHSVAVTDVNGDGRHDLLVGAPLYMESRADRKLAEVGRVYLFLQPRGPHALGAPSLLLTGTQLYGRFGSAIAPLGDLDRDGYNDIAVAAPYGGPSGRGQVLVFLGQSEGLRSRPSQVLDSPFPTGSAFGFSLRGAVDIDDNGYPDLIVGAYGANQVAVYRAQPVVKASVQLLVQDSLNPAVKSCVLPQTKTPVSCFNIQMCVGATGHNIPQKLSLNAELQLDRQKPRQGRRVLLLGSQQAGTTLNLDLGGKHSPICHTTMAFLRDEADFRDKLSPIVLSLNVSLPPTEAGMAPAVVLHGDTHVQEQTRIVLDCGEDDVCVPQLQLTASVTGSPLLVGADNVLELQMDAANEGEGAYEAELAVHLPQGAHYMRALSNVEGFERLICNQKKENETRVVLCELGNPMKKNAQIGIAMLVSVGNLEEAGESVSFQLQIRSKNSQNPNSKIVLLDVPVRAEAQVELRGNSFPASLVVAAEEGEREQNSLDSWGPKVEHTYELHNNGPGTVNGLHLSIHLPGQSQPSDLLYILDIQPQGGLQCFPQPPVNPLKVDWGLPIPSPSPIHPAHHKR
T5 sequence (P08514 891-1039 partner limits assumed): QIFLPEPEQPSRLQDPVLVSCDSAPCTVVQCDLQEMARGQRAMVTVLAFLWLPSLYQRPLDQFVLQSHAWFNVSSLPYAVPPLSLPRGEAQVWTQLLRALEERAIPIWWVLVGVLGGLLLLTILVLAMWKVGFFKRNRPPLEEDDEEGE
T5 sequence (P05106 27-788): as the sequence (P05106 27-788) above
In words: Fibrinogen binding to immobilized GP IIb-IIIa (αIIbβ3). As for the experimental part:
as §3

[9] abbreviates: Homo sapiens, HT-29, 72 hours culture.

Read-outs that look alike come from different tables or passages of the source.

As usually defined, the IC50 is the concentration at which inhibition is half-maximal. Take `N=C(N)NCCNC(=O)c1ccc(C(=O)NCC(Nc2ncccn2)C(=O)O)s1.O=C(O)C(F)(F)F.O=C(O)C(F)(F)F` (centres unmarked) [Compound XXX, 3-{[5-(2-guanidino-ethylcarbamoyl)-thiophene-2-carbonyl]-amino}-2-(pyrimidin-2-ylamino)-propionic acid bis trifluoroacetic acid salt]: the “% of inhibition at 33 μg/mesh in the presence of VEGF” value in assay [1] was found to be 31%. Besides, the IC50 was over 10000 nM in assay [2]; over 10000 nM in assay [3] (HMVEC); over 10000 nM in assay [4] (setting [9]); 150 nM in assay [5]; over 10000 nM in assay [6]; 3400 nM in assay [7]. Also, in assay [8], the IC50 worked out at 690 nM.

For “(2S)2-Benzenesulfonylamino-3-[5-(2-guanidinyl-ethylcarbamoyl)-thiophen-2-carbonyl]-amino propionic acid hydrochloride salt [Compound XI]”, the “% of inhibition at 33 μg/mesh in the presence of VEGF” value in assay [1] is listed as 38%. Moreover, the IC50 turned out to be 5300 nM in assay [2]; 870 nM in assay [3]; 9900 nM in assay [4] (72 hours culture); 0.58 nM in assay [5] (biotinylated-fibrinogen (10 nM) binding to immobilized αvβ3, read-out: IC50 αvβ3); 210 nM in assay [6] (HT29 cells, adhesion to vitronectin, 1 hour, read-out: IC50 HT29 Vitronectin (αvβ5)); 87 nM in assay [7] (K562 transfected with αvβ3, adhesion to osteopontin, 1 hour, read-out: IC50 K562-tr Osteopontin (αvβ3)). The 50% inhibitory concentration (IC50) in assay [8] (biotinylated-fibrinogen (10 nM) binding to immobilized αIIbβ3, read-out: IC50 αIIbβ3) was found to be 0.31 nM.

Consider `Cl.N=C(N)NCCNC(=O)c1ccc(C(=O)NC[C@H](NS(=O)(=O)c2ccccc2)C(=O)O)o1` [Compound XXI, hydrochloride], for which the IC50 in assay [2] was over 10000 nM; in assay [3] (HMVEC), 8900 nM; in assay [4] (setting [9]), over 10000 nM; in assay [5], 45 nM; in assay [6], 5400 nM; in assay [7] it was 2300 nM. For the same molecule, in assay [8], the IC50 is 931 nM.
